Source: US20200055897A1, “MODIFIED PEPTOIDS” (Technion Research & Development Foundation Limited, priority 2017, published 2020)
≈ marks a conversion by molar mass, not a printed value. Where “and” joins values, the source holds several entries; their conditions need not be identical. Equal values may be shown once. Read-outs that look alike come from different tables or passages of the source. Starred links: 1 amine or outer side, 2 acyl side, 3 side chain; linkers in the order of their positions; H or OH if unused. Non-standard residues stand in square brackets, D forms with d. Residues, ends and D or L forms follow the SMILES beside them. *: point of attachment. N(CH2CH2O-4'-Tpy)Gly = O=C(O)CNCCOc1cc(-c2ccccn2)nc(-c2ccccn2)c1; Acetyl(2-(piperazin-1-yl)) = O=C(CN1CCNCC1)*; X2 = O=C(CN(Cc1ccc2cccc(O)c2n1)[*:1])[*:2]; X4 = O=C(CN1CCCN([*:1])CC1)[*:2]; Nspe = C[C@H](NCC(=O)O)c1ccccc1; X1 = O=C(CN1CCN([*:1])CC1)[*:2]; X5 = NC(=O)CN1CCN(*)CC1; X3 = O=C(CN1CCCNCC1)*

Legend:
[1] = Fluorescence emission spectra in water (excimer band, aggregation); type: physicochemical; conditions: 40 μM
Description: (§1) In order to assess whether the dissolved peptoids form aggregates, fluorescence spectra were determined for P18 and P21 (which comprise Ns1npe) dissolved in water. Aggregation of peptoids with Ns1npe groups has been reported to be associated with an excimer band at 392 nm [Fuller et al., Org. Lett. 2013, 15:5118-5121]. In addition, CD spectra of P21 were determined at various concentrations ranging from 40 to 180 μM in water.

[2] = General method for water solubility test (gradual addition of water to 1 mg peptoid until clear); type: physicochemical
Description: 1 mg peptoid was placed in an Eppendorf container and water was added gradually (e.g., […] per addition) until a clear solution was obtained. The solubility test was repeated three times and average values are presented. The limit of the test was typically 2.0×10^2 mg/liter (i.e., 1 mg per 5 ml).
Water solubility tests were carried out by a gradual addition of 5 μl distilled water to 1 mg peptoid until a clear solution was obtained. This assay was repeated three times and results were averaged.

[3] = Circular dichroism (CD) spectra of peptoids in water (temperature and concentration dependence); type: physicochemical; conditions: for Aggregation in water from concentration dependence of CD spectra: 40 to 180 μM
Description: Circular dichroism (CD) measurements were performed using a J-810-150S circular dichroism spectropolarimeter (Jasco). Spectra were obtained in a 1 mm path-length fused quartz cell. Prior to taking measurements, 5 mM stock oligomer solution was constituted in 100% water. The appropriate dilutions were made immediately before the measurements. Eight scans were taken for each sample at a scan rate of 1 nm/second at 1 nm increments. Data are expressed in terms of per-residue molar ellipticity (degrees*cm^2/dmol) calculated per mole of amide groups present.
as §1
Similarly, CD spectra of P2, P5 and P8 (which comprise Nspe rather than Ns1npe as in P18 and P21) were determined in order to assess whether the dissolved peptoids form aggregates in water.

[4] = literature report (Baskin & Maayan 2016); cited from earlier work
[5] = Selectivity towards Cu^2+ by UV-visible absorption spectra (metal ion mixture vs Cu^2+-complex); type: binding; conditions: water; 1 equivalent peptoid, mixture of Cu^2+, Co^2+, Zn^2+, Fe^2+, Mn^2+ and Ni^2+
Description: UV-visible spectrometry measurements were performed using a Cary™ 60 UV-Vis spectrophotometer (Agilent) with Czerny-Turner monochromator. In a typical UV-visible experiment, 10 μl of a peptoid solution (5 mM) was diluted in 3 ml H2O (to obtain a 17 μM concentration) and the UV-visible spectrum was measured. Afterwards 1 equivalent of Cu^2+ (10 μl, 5 mM) or solution containing mixtures of metal ions (1 equivalent Cu^2+, Co^2+, Zn^2+, Mn^2+, Ni^2+ and Fe^3+, 5 mM, 10 μl) was added and the spectrum was measured again.
In order to evaluate the selectivity of P33 and P34 towards Cu^2+, 1 equivalent of each peptoid in water was added to 1 equivalent of a mixture solution containing the metal ions Cu^2+, Co^2+, Zn^2+, Fe^2+, Mn^2+ and Ni^2+, and UV-visible absorption spectra were recorded and compared to UV-visible absorption of Cu^2+-complexes of the peptoids. It has been previously shown that comparing UV-visible absorption spectra is a highly reliable tool to assess the selectivity of the peptoid chelators.

| Compound | solubility [2] | Aggregation in water from concentration dependence of CD spectra [3] | also measured |
| --- | --- | --- | --- |
| C[C@@H](c1cccc2ccccc12)N(CC(N)=O)C(=O)CN(C(=O)CN(C(=O)CN(C(=O)CN1CCN(C(=O)CN2CCNCC2)CC1)[C@@H](C)c1cccc2ccccc12)[C@@H](C)c1cccc2ccccc12)[C@@H](C)c1cccc2ccccc12 [Peptoid P18, (Ns1npe)4-(Npz)2] | 13.3 mg/mL (≈ 11.9 mM) | – | Excimer band near 392 nm (aggregation) [1]: no excimer band was observed |
| C[C@@H](c1ccccc1)N(CC(N)=O)C(=O)CN(C(=O)CN(C(=O)CN(C(=O)CN(C(=O)CN(C(=O)CN1CCCN(C(=O)CN2CCCNCC2)CC1)[C@@H](C)c1ccccc1)[C@@H](C)c1ccccc1)[C@@H](C)c1ccccc1)[C@@H](C)c1ccccc1)[C@@H](C)c1ccccc1 [Peptoid P8, (Nspe)6-(Nhpz)2] (X3-[X4][Nspe][Nspe][Nspe][Nspe][Nspe][Nspe]-NH2) | 510 mg/mL (≈ 403 mM) | no aggregation | – |
| C[C@H](NCC(=O)N(CC(=O)N(CC(=O)N(CC(=O)N(CCOc1cc(-c2ccccn2)nc(-c2ccccn2)c1)CC(=O)N(CC(N)=O)[C@@H](C)c1ccccc1)[C@@H](C)c1ccccc1)[C@@H](C)c1ccccc1)Cc1ccc2cccc(O)c2n1)c1ccccc1 [Peptoid P32, reference compound] (H-[Nspe][X2][Nspe][Nspe][N(CH2CH2O-4'-Tpy)Gly][Nspe]-NH2; N-terminus assumed) | < 0.2 mg/mL | – | Selective chelation of Cu^2+ (reported) [4]: selective peptoid chelator for Cu^2+ |
| C[C@H](NCC(=O)N(CC(=O)N(CC(=O)N(CC(=O)N(CCOc1cc(-c2ccccn2)nc(-c2ccccn2)c1)CC(=O)N(CC(=O)N1CCN(CC(N)=O)CC1)[C@@H](C)c1ccccc1)[C@@H](C)c1ccccc1)[C@@H](C)c1ccccc1)Cc1ccc2cccc(O)c2n1)c1ccccc1 [Peptoid P34, Npz-Nspe-Ntrp-(Nspe)2-Nhq-Nspe] (H-[Nspe][X2][Nspe][Nspe][N(CH2CH2O-4'-Tpy)Gly][Nspe]-X5; N-terminus assumed) | 8.3 mg/mL (≈ 6.22 mM) | – | Selective binding to Cu^2+ [5]: selectively binds to Cu^2+ |
| C[C@@H](c1cccc2ccccc12)N(CC(N)=O)C(=O)CN(C(=O)CN(C(=O)CN(C(=O)CN1CCN(C(=O)CN2CCN(C(=O)CN3CCNCC3)CC2)CC1)[C@@H](C)c1cccc2ccccc12)[C@@H](C)c1cccc2ccccc12)[C@@H](C)c1cccc2ccccc12 [Peptoid P21, (Ns1npe)4-(Npz)3] | 176 mg/mL (≈ 142 mM) | some concentration-dependent aggregation | Excimer band near 392 nm (aggregation) [1]: no excimer band was observed |
| C[C@@H](c1ccccc1)N(CC(N)=O)C(=O)CN(C(=O)CN(C(=O)CN(C(=O)CN(C(=O)CN(C(=O)CN1CCN(C(=O)CN2CCNCC2)CC1)[C@@H](C)c1ccccc1)[C@@H](C)c1ccccc1)[C@@H](C)c1ccccc1)[C@@H](C)c1ccccc1)[C@@H](C)c1ccccc1 [Peptoid P5, (Nspe)6-(Npz)2] ({Acetyl(2-(piperazin-1-yl))}-[X1][Nspe][Nspe][Nspe][Nspe][Nspe][Nspe]-NH2) | 58 mg/mL (≈ 46.9 mM) | no aggregation | Water solubility relative to that of P2 [2]: over 50 times; Water solubility relative to that of P2 at pH 10.5 ([2]; pH 10.5): 30 times |
| C[C@@H](c1ccccc1)N(CC(N)=O)C(=O)CN(C(=O)CN(C(=O)CN(C(=O)CN(C(=O)CN(C(=O)CN1CCNCC1)[C@@H](C)c1ccccc1)[C@@H](C)c1ccccc1)[C@@H](C)c1ccccc1)[C@@H](C)c1ccccc1)[C@@H](C)c1ccccc1 [Peptoid P2, (Nspe)6-Npz] ({Acetyl(2-(piperazin-1-yl))}-[Nspe][Nspe][Nspe][Nspe][Nspe][Nspe]-NH2) | ~900 µM and 1000 µg/mL | no aggregation | Change of CD spectrum (helical structure) in water with temperature ([3]; 0° C. to 90° C.): does not change significantly; solubility ([2]; pH 4.5): 1.66 mg/mL (≈ 1.49 mM); solubility ([2]; pH 7.5): 1.28 mg/mL (≈ 1.15 mM); solubility ([2]; pH 10.5): < 0.2 mg/mL |
| C[C@@H](c1ccccc1)N(CC(N)=O)C(=O)CN(CCOc1cc(-c2ccccn2)nc(-c2ccccn2)c1)C(=O)CN(C(=O)CN(C(=O)CN(Cc1ccc2cccc(O)c2n1)C(=O)CN(C(=O)CN1CCNCC1)[C@@H](C)c1ccccc1)[C@@H](C)c1ccccc1)[C@@H](C)c1ccccc1 [Peptoid P33, Nspe-Ntrp-(Nspe)2-Nhq-Nspe-Npz] ({Acetyl(2-(piperazin-1-yl))}-[Nspe][X2][Nspe][Nspe][N(CH2CH2O-4'-Tpy)Gly][Nspe]-NH2; N-terminus assumed) | 244 mg/mL (≈ 183 mM) | – | Selective binding to Cu^2+ [5]: does not selectively bind to Cu^2+ |
| C[C@@H](c1cccc2ccccc12)N(CC(N)=O)C(=O)CN(C(=O)CN(C(=O)CN(C(=O)CN1CCCNCC1)[C@@H](C)c1cccc2ccccc12)[C@@H](C)c1cccc2ccccc12)[C@@H](C)c1cccc2ccccc12 [Peptoid P14, (Ns1npe)4-Nhpz] | < 0.2 mg/mL | – | – |
